# Source: ChEMBL document CHEMBL5143674, “Discovery of benzo[d]oxazol-2(3H)-one derivatives as a new class of TNIK inhibitors for the treatment of colorectal cancer” (Bioorg Med Chem Lett, 2022)
# Calls of active or inactive are those of the source. No cut-off for these calls is given here.
# What was measured:
# [1] = molecular target: TRAF2 and NCK-interacting protein kinase (Homo sapiens, UniProt Q9UKE5); assay: Inhibition of human recombinant TNIK (1 to 367 residues) using RLGRDKYKTLRQIRQ as substrate incubated for 40 mins in presence of Mg/ATP mix by [gamma p33]-ATP based radiometric scintillation counting method
# TRAF2 and NCK-interacting protein kinase, sequence (Q9UKE5 whole entry, the tested form may be a part): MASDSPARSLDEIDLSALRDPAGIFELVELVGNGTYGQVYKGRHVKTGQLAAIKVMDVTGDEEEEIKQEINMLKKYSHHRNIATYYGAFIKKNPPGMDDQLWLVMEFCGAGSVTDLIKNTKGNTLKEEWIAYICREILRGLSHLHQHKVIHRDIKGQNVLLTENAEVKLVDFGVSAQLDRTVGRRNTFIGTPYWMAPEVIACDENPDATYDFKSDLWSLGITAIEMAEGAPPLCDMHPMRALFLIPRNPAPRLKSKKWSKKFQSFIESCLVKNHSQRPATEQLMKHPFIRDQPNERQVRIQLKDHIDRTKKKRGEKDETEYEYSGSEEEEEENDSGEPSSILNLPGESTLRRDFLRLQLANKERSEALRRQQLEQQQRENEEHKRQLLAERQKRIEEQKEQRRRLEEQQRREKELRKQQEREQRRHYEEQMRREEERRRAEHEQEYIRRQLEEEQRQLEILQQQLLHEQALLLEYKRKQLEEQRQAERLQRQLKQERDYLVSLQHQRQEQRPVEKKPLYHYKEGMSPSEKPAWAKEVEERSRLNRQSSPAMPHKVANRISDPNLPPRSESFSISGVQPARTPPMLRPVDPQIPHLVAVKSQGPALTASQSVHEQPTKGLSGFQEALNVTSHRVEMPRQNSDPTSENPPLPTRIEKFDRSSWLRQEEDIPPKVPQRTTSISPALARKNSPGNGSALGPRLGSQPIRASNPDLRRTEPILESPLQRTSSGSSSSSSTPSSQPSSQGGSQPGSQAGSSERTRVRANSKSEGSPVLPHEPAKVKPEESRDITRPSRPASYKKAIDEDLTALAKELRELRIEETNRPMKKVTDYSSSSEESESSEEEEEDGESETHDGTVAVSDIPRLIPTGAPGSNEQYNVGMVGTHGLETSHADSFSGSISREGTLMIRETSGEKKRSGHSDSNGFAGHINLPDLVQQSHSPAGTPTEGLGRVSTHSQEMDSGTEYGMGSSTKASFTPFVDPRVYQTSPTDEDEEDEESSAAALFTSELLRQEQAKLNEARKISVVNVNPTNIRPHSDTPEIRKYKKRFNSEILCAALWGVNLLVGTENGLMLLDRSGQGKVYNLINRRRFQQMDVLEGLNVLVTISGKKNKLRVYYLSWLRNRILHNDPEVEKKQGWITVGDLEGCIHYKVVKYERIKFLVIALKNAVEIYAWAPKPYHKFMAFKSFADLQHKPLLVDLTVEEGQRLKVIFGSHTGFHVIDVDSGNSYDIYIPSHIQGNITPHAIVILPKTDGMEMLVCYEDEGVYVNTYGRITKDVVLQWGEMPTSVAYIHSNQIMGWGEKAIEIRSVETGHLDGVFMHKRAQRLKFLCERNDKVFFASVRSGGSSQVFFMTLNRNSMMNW
# HCT-116 [2] = assay: Antiproliferative activity against human HCT-116 cells assessed as inhibition of cell proliferation incubated for 72 hrs by MTT assay; type: functional, cell-based; details: HCT-116, 72 h
# HCT-116 [3] = assay: Downregulation of nuclear beta-catenin protein expression in human HCT-116 cells at 10 to 40 uM incubated for 48 hrs by western blot analysis; type: functional, cell-based; details: dose 10-40 µM, DDE = dose-dependent effect
# [4] = molecular target: Vascular endothelial growth factor receptor 2 (Homo sapiens) (UniProt P35968); assay: Inhibition of recombinant human KDR (790 to end residues) using myelin basic protein as substrate incubated for 40 mins in presence of [gamma-33P]-ATP by radiometric based scintillation counter assay
# Vascular endothelial growth factor receptor 2 (Homo sapiens), sequence (P35968 whole entry): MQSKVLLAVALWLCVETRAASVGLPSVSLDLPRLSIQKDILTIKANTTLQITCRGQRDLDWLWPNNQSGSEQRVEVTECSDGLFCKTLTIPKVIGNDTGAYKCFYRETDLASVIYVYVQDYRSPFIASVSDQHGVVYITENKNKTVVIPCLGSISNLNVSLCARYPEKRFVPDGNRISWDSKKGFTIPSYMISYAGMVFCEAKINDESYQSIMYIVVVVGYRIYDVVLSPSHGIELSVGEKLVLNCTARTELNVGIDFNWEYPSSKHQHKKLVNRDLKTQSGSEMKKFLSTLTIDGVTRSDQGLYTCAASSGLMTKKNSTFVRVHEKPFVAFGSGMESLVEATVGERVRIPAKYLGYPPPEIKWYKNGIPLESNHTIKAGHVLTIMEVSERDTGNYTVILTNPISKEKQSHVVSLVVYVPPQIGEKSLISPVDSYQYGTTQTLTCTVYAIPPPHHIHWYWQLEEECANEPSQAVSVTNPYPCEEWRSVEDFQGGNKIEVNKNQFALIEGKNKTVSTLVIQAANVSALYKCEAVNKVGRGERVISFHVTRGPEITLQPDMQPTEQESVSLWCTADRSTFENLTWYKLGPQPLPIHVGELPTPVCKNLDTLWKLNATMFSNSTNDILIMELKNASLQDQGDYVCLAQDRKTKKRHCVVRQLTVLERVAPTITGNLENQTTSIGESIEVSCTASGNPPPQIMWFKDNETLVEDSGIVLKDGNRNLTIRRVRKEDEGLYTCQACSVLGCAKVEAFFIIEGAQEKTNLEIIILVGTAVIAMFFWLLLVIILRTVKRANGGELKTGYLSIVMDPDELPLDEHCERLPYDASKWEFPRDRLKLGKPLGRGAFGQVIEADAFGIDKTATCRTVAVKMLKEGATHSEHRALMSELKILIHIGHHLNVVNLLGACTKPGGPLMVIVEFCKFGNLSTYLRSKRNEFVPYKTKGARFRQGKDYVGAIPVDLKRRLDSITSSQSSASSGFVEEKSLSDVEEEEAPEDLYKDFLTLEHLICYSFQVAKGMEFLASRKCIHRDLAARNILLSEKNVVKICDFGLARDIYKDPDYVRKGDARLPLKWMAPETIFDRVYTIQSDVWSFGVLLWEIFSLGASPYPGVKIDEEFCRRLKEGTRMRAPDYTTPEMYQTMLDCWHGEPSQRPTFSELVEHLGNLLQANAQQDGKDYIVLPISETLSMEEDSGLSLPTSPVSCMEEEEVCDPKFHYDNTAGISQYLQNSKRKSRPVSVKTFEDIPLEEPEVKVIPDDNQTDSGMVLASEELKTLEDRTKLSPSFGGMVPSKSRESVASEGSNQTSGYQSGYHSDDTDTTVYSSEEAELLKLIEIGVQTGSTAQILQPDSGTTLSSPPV
# HCT-116 [5] = assay: Downregulation of Axin2 protein expression in human HCT-116 cells at 10 to 40 uM incubated for 48 hrs by western blot analysis; type: functional, cell-based; details: dose 10-40 µM
# HCT-116 [6] = assay: Downregulation of nuclear TCF-4 protein expression in human HCT-116 cells at 10 to 40 uM incubated for 48 hrs by western blot analysis; type: functional, cell-based; details: dose 10-40 µM, DDE = dose-dependent effect
# HCT-116 [7] = assay: Inhibition of colony formation in human HCT-116 cells assessed as inhibition of cell proliferation at 1.25 to 5 uM incubated for 14 days by crystal violet staining based microscopic analysis; type: functional; details: dose 1.25-5 µM, time 14.0 day, DDE = dose-dependent effect
# HCT-116 [8] = assay: Downregulation of c-Myc protein expression in human HCT-116 cells at 10 to 40 uM incubated for 48 hrs by western blot analysis; type: functional, cell-based; details: dose 10-40 µM
# HCT-116 [9] = assay: Inhibition of cell migration in human HCT-116 cells at 1 uM incubated for 24 to 48 hrs by wound-closure assay; type: functional, cell-based; details: time 24-48 hrs
# [10] = molecular target: Vascular endothelial growth factor receptor 3 (Homo sapiens) (UniProt P35916); assay: Inhibition of human recombinant FLT4 (800 to end residues) using GGEEEEYFELVKKKK as substrate incubated for 40 mins in presence of [gamma-33P]-ATP by radiometric based scintillation counter assay
# Vascular endothelial growth factor receptor 3 (Homo sapiens), sequence (P35916 whole entry): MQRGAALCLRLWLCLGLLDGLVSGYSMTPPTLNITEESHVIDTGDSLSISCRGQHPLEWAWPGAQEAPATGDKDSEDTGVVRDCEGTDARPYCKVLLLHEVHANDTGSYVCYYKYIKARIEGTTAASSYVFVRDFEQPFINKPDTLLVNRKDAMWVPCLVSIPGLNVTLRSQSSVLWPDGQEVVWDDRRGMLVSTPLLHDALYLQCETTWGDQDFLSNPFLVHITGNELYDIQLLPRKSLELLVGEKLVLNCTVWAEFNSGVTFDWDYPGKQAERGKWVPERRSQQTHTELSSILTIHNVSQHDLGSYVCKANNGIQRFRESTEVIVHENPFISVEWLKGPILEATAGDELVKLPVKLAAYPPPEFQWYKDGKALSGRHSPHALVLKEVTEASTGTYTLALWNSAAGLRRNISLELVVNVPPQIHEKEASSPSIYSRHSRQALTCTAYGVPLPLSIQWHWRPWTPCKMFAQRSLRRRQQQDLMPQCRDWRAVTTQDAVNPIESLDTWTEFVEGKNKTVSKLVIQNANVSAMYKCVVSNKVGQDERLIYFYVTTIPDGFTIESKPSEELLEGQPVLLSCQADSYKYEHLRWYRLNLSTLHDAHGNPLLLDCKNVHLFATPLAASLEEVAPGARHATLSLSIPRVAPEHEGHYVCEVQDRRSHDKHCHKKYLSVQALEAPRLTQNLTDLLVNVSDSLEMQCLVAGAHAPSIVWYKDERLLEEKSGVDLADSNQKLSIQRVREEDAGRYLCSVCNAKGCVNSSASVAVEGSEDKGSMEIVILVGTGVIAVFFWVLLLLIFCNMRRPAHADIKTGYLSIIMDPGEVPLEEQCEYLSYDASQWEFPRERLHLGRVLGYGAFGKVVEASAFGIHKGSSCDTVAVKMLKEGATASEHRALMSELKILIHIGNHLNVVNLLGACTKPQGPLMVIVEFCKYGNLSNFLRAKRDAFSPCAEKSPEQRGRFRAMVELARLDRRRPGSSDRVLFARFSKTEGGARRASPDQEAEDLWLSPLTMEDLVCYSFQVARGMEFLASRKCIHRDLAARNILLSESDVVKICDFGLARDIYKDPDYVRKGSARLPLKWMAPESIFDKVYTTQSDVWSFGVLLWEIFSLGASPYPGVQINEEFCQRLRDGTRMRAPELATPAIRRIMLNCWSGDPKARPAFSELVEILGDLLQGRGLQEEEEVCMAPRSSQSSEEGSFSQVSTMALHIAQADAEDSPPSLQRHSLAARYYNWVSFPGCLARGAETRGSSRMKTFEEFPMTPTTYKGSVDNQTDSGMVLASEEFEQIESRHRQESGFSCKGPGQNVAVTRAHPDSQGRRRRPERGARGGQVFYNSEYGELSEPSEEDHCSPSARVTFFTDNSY
IC50 [1],IC50 (HCT-116 [2]),SMILES,other results
> 10 µM,,N#Cc1cccc(Cn2c(=O)oc3cc(-c4cnc5[nH]ccc5c4)ccc32)c1,
4.44 µM,,O=c1oc2cc(-c3ccn4ncnc4c3)ccc2n1Cc1ccc(F)cc1,
> 10 µM,,O=c1cnc2cc(-c3ccc4c(c3)oc(=O)n4Cc3ccc(F)cc3)ccc2[nH]1,
2.84 µM,,O=c1oc2cc(-c3cnc4[nH]ccc4c3)ccc2n1Cc1cccc(C(F)(F)F)c1,
> 10 µM,,O=c1oc2cc(-c3cnc4ncccn34)ccc2n1Cc1ccc(F)cc1,
0.09 µM,5.92 µM,O=c1oc2cc(-c3cnc4[nH]ccc4c3)ccc2n1Cc1cccc(F)c1,
4.08 µM,,O=c1oc2cc(-c3cnc4[nH]ccc4n3)ccc2n1Cc1ccc(F)cc1,
> 10 µM,,COc1cccc(Cn2c(=O)oc3cc(-c4cnc5cc[nH]c5c4)ccc32)c1,
2.44 µM,,O=c1oc2cc(-c3ccc4ncnn4c3)ccc2n1Cc1ccc(F)cc1,
0.663 µM,> 100 µM,Nc1ncnn2c(-c3ccc4c(c3)oc(=O)n4Cc3ccc(F)cc3)ccc12,
0.61 µM,36.4 µM,COc1cc(-c2ccc3c(c2)oc(=O)n3Cc2ccc(F)cc2)cnc1N,
0.11 µM,5.99 µM,O=c1oc2cc(-c3cnc4[nH]ccc4c3)ccc2n1Cc1ccc(F)cc1,
0.05 µM,5 µM,COc1cccc(Cn2c(=O)oc3cc(-c4cnc5[nH]ccc5c4)ccc32)c1,Activity (HCT-116 [3]): Dde; inhibition [4]: > 80%; Activity (HCT-116 [5]): Active; Activity (HCT-116 [6]): Dde; inhibition (HCT-116 [7]): Dde; Activity (HCT-116 [8]): Active; inhibition (HCT-116 [9]): Active; inhibition [10]: > 80%
3.99 µM,,COc1cccc(Cn2c(=O)oc3cc(-c4cccnc4)ccc32)c1,
1.05 µM,,O=c1oc2cc(-c3cnc4[nH]ccc4c3)ccc2n1Cc1ccccc1F,
> 10 µM,,O=c1oc2cc(-c3cnc4cnccn34)ccc2n1Cc1ccc(F)cc1,
,0.403 µM,O[C@H]1CC[C@@H](Oc2cccc3cnc(Nc4ccc5nc[nH]c5c4)nc23)CC1,
> 10 µM,,COc1cccc(Cn2c(=O)oc3cc(-c4ccc5[nH]c(C(=O)NC6CC6)cc5c4)ccc32)c1,
> 10 µM,,O=c1oc2cc(-c3ccc4nncn4c3)ccc2n1Cc1ccc(F)cc1,
1.74 µM,,O=c1oc2cc(-c3cnc4[nH]ccc4c3)ccc2n1Cc1cccc(OC(F)F)c1,

IC50 [1],IC50 (HCT-116 [2]),SMILES,other results
0.234 µM,16.5 µM,Nc1ccc(-c2ccc3c(c2)oc(=O)n3Cc2ccc(F)cc2)cn1,
0.91 µM,> 100 µM,O=c1oc2cc(-c3ccnc4[nH]ncc34)ccc2n1Cc1ccc(F)cc1,
0.719 µM,8.05 µM,COc1cc(Cn2c(=O)oc3cc(-c4cnc5[nH]ccc5c4)ccc32)ccc1F,
3.98 µM,,COc1cccc(Cn2c(=O)oc3cc(-c4cnc5[nH]ccc5n4)ccc32)c1,
0.356 µM,5.12 µM,Cc1cccc(Cn2c(=O)oc3cc(-c4cnc5[nH]ccc5c4)ccc32)c1,
0.228 µM,11.8 µM,O=c1oc2cc(-c3c[nH]c4ncccc34)ccc2n1Cc1ccc(F)cc1,
0.289 µM,7.06 µM,O=c1oc2cc(-c3cnc4[nH]ccc4c3)ccc2n1Cc1cccc(OC(F)(F)F)c1,
> 10 µM,,O=c1oc2cc(-c3cnc4ccnn4c3)ccc2n1Cc1ccc(F)cc1,
> 10 µM,,COc1cccc(Cn2c(=O)oc3cc(-c4cnc(C#N)c(C)c4)ccc32)c1,
0.412 µM,7.44 µM,COc1cccc(Cn2c(=O)oc3cc(-c4ccc(N)nc4)ccc32)c1,
> 10 µM,,COc1cccc(Cn2c(=O)oc3cc(-c4ccc5[nH]cc(C(=O)NC6CC6)c5c4)ccc32)c1,
> 10 µM,,O=c1oc2cc(-c3ccc4scnc4c3)ccc2n1Cc1ccc(F)cc1,
5.61 µM,,COc1cccc(Cn2c(=O)oc3cc(-c4cncnc4)ccc32)c1,
0.265 µM,> 100 µM,COc1cccc(Cn2c(=O)oc3cc(-c4ccc5c(c4)CCN5)ccc32)c1,
9 µM,,COc1cccc(Cn2c(=O)oc3cc(-c4ccnc5[nH]ccc45)ccc32)c1,
> 10 µM,,O=c1oc2cc(-c3cnc4cccnn34)ccc2n1Cc1ccc(F)cc1,
1.26 µM,,O=c1oc2cc(-c3ccc4[nH]ccc4c3)ccc2n1Cc1ccc(F)cc1,
0.156 µM,8.25 µM,N#Cc1cc(-c2ccc3c(c2)oc(=O)n3Cc2ccc(F)cc2)cnc1N,
1.16 µM,,COc1cccc(Cn2c(=O)oc3cc(-c4ccc5[nH]ccc5c4)ccc32)c1,
